Entries after “also recorded” stand apart in the source; their conditions may differ. Where two headings read alike, the source gives them in different places.
Columns and labels:
[1] = test system: adipose tissue; assay: in vitro human adipose tissue angiogenesis assay (fat fragments in fibrin clot); type: cell-based
Method: Tissue Preparation: Discarded fat from human surgery was cut into fragments approximately 1 mm thick and 2 mm in diameter. These fat fragments were placed in 96-well plates loaded with human thrombin solution (0.05 IU in 40 μL double distilled water/well). The fat fragments were placed in the prepared 96-well plates and covered with 100 μl clotting media. The clotting media consisted of fibrinogen (3 mg/ml) (Sigma Chemical Co., St. Louis, Mo.) and ε-amino caproic acid (0.5%) (Sigma Chemical Co., St. Louis, Mo.) in human placental vein angiogenesis model (HPVAM) media. […] The mixture was allowed to clot by incubation in 6% CO2, 94% air at 37° C. in a humidified incubator. After the media had gelled overnight, the fat-containing clot was supplemented with 1 mL HPVAM media containing 20% fetal bovine serum (GibcoBRL, Gaithersburg, Md.). The total volume of each well was 2 mL.
Angiogenic Evaluation: All wells were evaluated for angiogenic sprouting by examination at 40× and 200× magnification by an unbiased observer using an inverted microscope. Angiogenesis was defined by two criteria. First, the number of wells (as a percentage of the total plated) that developed new vessel growth was termed initiation. This was defined by the presence of at least three angiogenic sprouts of approximately 0.5 mm in length growing from the periphery of the fat tissue. The degree of angiogenic response was assessed using a semi-quantitative visual rating scale as described in E. A. Woltering et al., “Development of a novel in vitro human tissue-based angiogenesis assay to evaluate the effect of antiangiogenic drugs,” Ann. Surg., vol. […] The tissue was visually divided into four quadrants. Each quadrant was given a numeric score from 0-4 based on the length and density of the new vessel growth, and on the percentage of the quadrant's circumference involved with the angiogenic response. Numeric results from the four quadrants were summed and expressed as an angiogenic index (AI, 1-16). This rating scale has been validated using multiple independent observers as described in C. Hornick et al., “Inhibition of angiogenic initiation and disruption of newly established human vascular networks by juice of Morinda citrifola (Noni),” Angiogenesis, vol.

[2] = cited from earlier work; for duration of action on feeding: single injection
[3] = target: beta subunit of ATP synthase (Homo sapiens, UniProt P06576); conditions: cited from earlier work
Chain of beta subunit of ATP synthase (P06576 48-529): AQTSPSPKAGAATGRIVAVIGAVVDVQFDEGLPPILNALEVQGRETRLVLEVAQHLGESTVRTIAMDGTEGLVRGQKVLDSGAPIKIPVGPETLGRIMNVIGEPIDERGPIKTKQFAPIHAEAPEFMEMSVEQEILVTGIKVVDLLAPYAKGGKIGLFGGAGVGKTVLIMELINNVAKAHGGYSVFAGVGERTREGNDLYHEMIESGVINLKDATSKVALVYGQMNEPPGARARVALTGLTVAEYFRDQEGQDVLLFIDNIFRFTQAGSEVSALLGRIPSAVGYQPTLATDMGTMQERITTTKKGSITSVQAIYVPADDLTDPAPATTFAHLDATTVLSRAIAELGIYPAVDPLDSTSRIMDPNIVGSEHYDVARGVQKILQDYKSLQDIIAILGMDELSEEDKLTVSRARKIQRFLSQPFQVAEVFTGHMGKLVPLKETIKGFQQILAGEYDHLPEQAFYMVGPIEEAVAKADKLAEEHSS

[4] = test system: umbilical veins; assay: human umbilical vein angiogenesis model; type: cell-based
Excerpt: In addition, another angiogenesis model was tried, the human umbilical vein model as described by Woltering et al. (61). This model uses discarded umbilical veins to assay the effect of various compounds on angiogenesis.

[5] = test system: HepG2 cells; assay: microarray gene analysis, HepG2 cells; type: cell-based, human; conditions: HepG2 cells (counted together with GT1-7); 60 minutes; 0.01, 0.1 and 1.0 uM; regulated by at least 1.7×
Method: (§1) HepG2 cells (a human liver carcinoma cell line) and GT1-7 cells (a neuronal cell line) were cultured by standard procedures and incubated with varying concentrations of enterostatin for 60 minutes. At the completion of the incubation period, cells were lysed, recovered from the plates, and extracted for RNA using TRI REAGENT® (Molecular Research Center, Inc, Cincinnati, Ohio). The RNA was then purified using the RNeasy® Mini Kit (Qiagen, Valencia, Calif.). RNA quality was visually assessed using agarose gel electrophoresis and quantified by UV spectrophotometric analysis (A260 and A280 nm). All RNA had A260/A280 ratios greater than 1.75 and less than 2.10. RNA integrity was checked using an RNA 6000 nano lab chip kit (Agilent Technologies, Foster City, Calif.). […]
(§2) Slides were scanned using a GSI Lumonics ScanArray 5000 laser scanner (Perkin Elmer Life Sciences, Inc., Boston, Mass.) at a relatively low and a relatively high laser intensity and expression data was analyzed using the QuantArray V3.0 software package (Perkin Elmer Life Sciences, Inc.). […]

[6] = test system: GT1-7 cells; assay: microarray gene analysis, GT1-7 cells; type: cell-based; conditions: GT1-7 cells (counted together with HepG2); 60 minutes; 0.01, 0.1 and 1.0 uM; regulated by at least 1.7×
Method: as §1, §2

[7] = low affinity binding, brain membrane preparation; cited from earlier work
[8] = test system: SK-N-MC neuroepithelioma cells; conditions: low affinity binding; cited from earlier work
[9] = test system: galanin receptors; conditions: cited from earlier work
[10] = target: T1, Neuropeptide Y1 receptors (Homo sapiens, UniProt P25929); conditions: cited from earlier work
T1 sequence (P25929 1-384): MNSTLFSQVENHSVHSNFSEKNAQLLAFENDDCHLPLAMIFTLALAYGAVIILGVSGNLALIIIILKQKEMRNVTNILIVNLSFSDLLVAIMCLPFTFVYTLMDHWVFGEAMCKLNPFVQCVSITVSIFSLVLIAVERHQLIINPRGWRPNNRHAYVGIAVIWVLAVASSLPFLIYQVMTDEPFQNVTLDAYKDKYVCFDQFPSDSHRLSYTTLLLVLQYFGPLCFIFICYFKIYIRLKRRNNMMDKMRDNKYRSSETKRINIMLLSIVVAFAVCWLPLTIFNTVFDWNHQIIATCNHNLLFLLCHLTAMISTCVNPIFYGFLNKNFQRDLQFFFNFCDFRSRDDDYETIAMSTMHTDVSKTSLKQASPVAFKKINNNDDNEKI

[11] = target: kappa-opioid receptors (Homo sapiens, UniProt P41145); conditions: cited from earlier work
Chain of kappa-opioid receptors (P41145 whole entry): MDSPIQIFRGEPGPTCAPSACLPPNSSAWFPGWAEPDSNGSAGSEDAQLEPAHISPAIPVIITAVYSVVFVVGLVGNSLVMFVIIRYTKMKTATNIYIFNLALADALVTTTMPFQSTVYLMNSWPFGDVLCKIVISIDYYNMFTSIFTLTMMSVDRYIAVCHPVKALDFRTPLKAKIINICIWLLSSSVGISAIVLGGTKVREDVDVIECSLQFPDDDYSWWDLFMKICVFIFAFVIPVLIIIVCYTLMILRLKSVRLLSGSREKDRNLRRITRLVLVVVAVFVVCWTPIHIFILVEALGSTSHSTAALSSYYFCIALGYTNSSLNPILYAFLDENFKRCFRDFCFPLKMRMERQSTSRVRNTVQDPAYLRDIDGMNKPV

[12] = target: T2, cholecystokinin A receptors (Homo sapiens, UniProt P32238); conditions: cited from earlier work
T2 sequence (P32238 1-428): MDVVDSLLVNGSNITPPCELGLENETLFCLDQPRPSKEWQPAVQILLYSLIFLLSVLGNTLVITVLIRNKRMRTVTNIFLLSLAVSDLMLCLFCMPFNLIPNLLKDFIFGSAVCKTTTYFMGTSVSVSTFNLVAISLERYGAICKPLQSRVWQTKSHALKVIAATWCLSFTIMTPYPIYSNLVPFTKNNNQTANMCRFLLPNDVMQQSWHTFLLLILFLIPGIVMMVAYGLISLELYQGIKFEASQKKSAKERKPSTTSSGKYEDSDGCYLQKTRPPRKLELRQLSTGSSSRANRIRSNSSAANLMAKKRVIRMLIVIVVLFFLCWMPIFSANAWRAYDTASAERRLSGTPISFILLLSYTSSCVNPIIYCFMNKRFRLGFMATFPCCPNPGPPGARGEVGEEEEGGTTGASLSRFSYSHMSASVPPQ

[13] = test system: islet cells; conditions: cited from earlier work
[14] = humans, intravenous injection; cited from earlier work
[15] = occurring mainly into lymphatic system; cited from earlier work
[16] = rats adapted to three-choice macronutrient diet

In the case of APGP-ornithine [reference compound], the “inhibitory effect on the angiogenic index (FIG. 4 legend)” value [1] is listed as “lack of an inhibitory effect”, the “inhibition of angiogenesis (FIG. 4)” value ([1]; concentrations from 10^−6 to 10^−9 M) is listed as “none of these concentrations of the metabolite inhibited angiogenesis” and the “food intake in rats” value ([2]; rat, in vivo) is listed as “shown to affect food intake in rats”.

For β-casomorphin1-7 [reference compound], the “inhibitory effect on the angiogenic index (FIG. 4 legend)” value [1] is listed as “lack of an inhibitory effect”, the “effect on angiogenesis (FIG. 4)” value ([1]; concentrations of 10^−6 and 10^−7 M) is listed as “no effect on angiogenesis” and the “binding to purified beta subunit of ATP synthase” value [3] is listed as “bind to this purified protein”.

In the case of “enterostatin (VPDPR; printed: Val-Pro-Asp-Pro-Arg) [aminoterminal pentapeptide of procolipase released when procolipase is converted into colipase]”, the “concentration least inhibitory of angiogenesis as measured by the angiogenic index (FIG. 3)” value [1] is reported as 10^−10 M, the “new blood vessels (photomicrograph, FIG. 1B vs control FIG. 1A)” value ([1]; 10^−9 M enterostatin) is reported as “fewer new blood vessels than the control tissue” and the angiogenic response ([1]; concentrations from about 10^−6 to about 10^−9 M) is reported as “effectively blocked the angiogenic response”. The “concentration giving the greatest inhibition of angiogenic index (FIG. 2)” value ([1]; day 15, U-shaped dose response curve) was 10^−9 M, the “effect on the angiogenic index (FIG. 2)” value ([1]; range of 10^−8 to 10^−6 M) was “dose dependent inhibition” and the inhibition of angiogenesis [4] was “effective in inhibiting angiogenesis”. The “number of genes related to the angiogenesis pathway upregulated or downregulated” value [5] was 22 genes, the “number of genes related to the angiogenesis pathway upregulated or downregulated” value [6] was 22 genes and the Kd [7] was 230 nM. The Kd [8] was 40 nM, the “binding to galanin receptors” value [9] was “not to bind” and the “binding to Neuropeptide Y1 receptors” value [10] was “not to bind”. For the same substance, the “binding to kappa-opioid receptors” value [11] was “not to bind”, the “binding to cholecystokinin A receptors” value [12] was “not to bind” and the “binding to purified beta subunit of ATP synthase” value [3] was “bind to this purified protein; also recorded: binds to the beta subunit of ATP synthase”. For the same substance, the “insulin secretion from islets” value ([13]; 10^−9 to 10^−5 M, 16.7 mM glucose, dose-dependent) was “inhibited insulin secretion from islets”, the “insulin secretion from isolated pancreatic islets” value ([13]; doses of 10^−10 to 10^−6M) was “inhibit insulin secretion” and the “daily intake of dietary fat” value ([2]; chronic icv administration from mini-osmotic pumps, single-choice HF or two-choice HF/LF diet) was “attenuated the daily intake of dietary fat”. For the same substance, the “carbohydrate or protein intake” value [2, 16] was “no effect on either carbohydrate or protein intake”, the “intake of fat macronutrient” value [2, 16] was “reduced intake of the fat macronutrient” and the “duration of action on feeding” value ([2]; rats adapted to a six-hour feeding schedule) was “lasting up to six hours”. For the same substance, the “duration of action on feeding” value ([2]; rats adapted to ad-libitum feeding) was “up to 24 hours”, the “intake of HF vs LF diet” value ([2]; two-choice high-fat and low-fat diet paradigm) was “reduced only intake of the HF diet” and the food intake [14] was “not found to reduce food intake”. The “subjective feeling of hunger” value [14] was “reduce the subjective feeling of hunger” and the “absorption across the intestine” value [15] was “limited and slow”.

— patent US7943576B2, “Methods of using enterostatin as inhibitor of angiogenesis” (priority 2005, dated 2011)
